The target of one assay is T1, human mGluR4 (Homo sapiens, UniProt Q14833).
T1 construct: expressed in transfected cells; host or cells: CHO cells
The assay is described as follows: human mGluR4 potentiation, Ca2+-sensitive dye fluorescence assay in transfected CHO cells. The assay is classed as cell-based. The following applies: for Emax: CHO, maximum extent of potentiation, human mGluR4, read-out: hGluMax; for EC50: EC50 for potentiation, human mGluR4, with EC20 concentration of agonist, read-out: hEC50. The procedure:
(§1) The disclosed compounds and compositions can be evaluated for their ability to act as a potentiator of metabotropic glutamate receptor activity, in particular mGluR4 activity, by any suitable known methodology known in the art. For example, Chinese Hamster Ovary (CHO) cells transfected with human mGluR4 or HEK cells co-transfected with rat mGluR4 and the G-protein regulated Inwardly Rectifying Potassium channel (GIRK) were plated in clear bottom assay plates for assay in a Hamamatsu FDSS Fluorometric Plate Reader. The cells were loaded with either a Ca2+-sensitive fluorescent dye or the thallium responsive dye and the plates were washed and placed into a suitable kinetic plate reader. […] Approximately two and a half minutes later, a concentration of mGluR4 orthosteric agonist (e.g. glutamate or L-AP4) eliciting approximately 20% (EC20) of the maximal agonist response was added to the cells, and the response was measured. Two minutes later, a concentration of mGluR4 agonist (e.g. glutamate or L-AP4) eliciting 80% (EC80) of the maximal agonist response was added to the cells, and the response was measured. For rat mGluR4/GIRK experiments, a baseline was established for approximately five seconds, disclosed compounds were added, and either an EC20 or EC80 concentration of agonist was added approximately two and one half minutes later.
(§2) The above described assay operated in two modes. In the first mode, a range of concentrations of the disclosed compounds are added to cells, followed by a single fixed concentration of agonist. If the compound acts as a potentiatior, an EC50 value for potentiation and a maximum extent of potentiation by the compound at this concentration of agonist is determined by non-linear curve fitting. If the compound acts as a noncompetitive antagonist, an IC50 value is determined by non-linear curve fitting. In the second mode, several fixed concentrations of the disclosed compounds are added to various wells on a plate, followed by a range in concentrations of agonist for each concentration of disclosed compound. The ECso values for the agonist at each concentration of compound are determined by non-linear curve fitting. A decrease in the EC50 value of the agonist with increasing concentrations of the sample compound (a leftward shift of the agonist concentration-response curve) is an indication of the degree of mGluR4 potentiation at a given concentration of the sample compound. A decrease in the maximal response of the agonist with increasing concentrations of the sample compounds, with or without a rightward shift in agonist potency, is an indication of the degree of noncompetitive antagonism at mGluR4. The second mode also indicates whether the sample compounds also affect the maximum response to mGluR4 to agonists.

The next assay addresses T2, rat mGluR4 (Rattus norvegicus, UniProt P31423).
T2 construct: expressed in transfected cells; host or cells: HEK cells
The assay is described as follows: rat mGluR4/GIRK potentiation, thallium responsive dye assay in co-transfected HEK cells. The assay is classed as cell-based. The following applies: for rGluMax: maximum extent of potentiation. As to the method: as §1, §2

Like-named read-outs stand apart in the source and are kept apart here.

T1 sequence (Q14833 33-912): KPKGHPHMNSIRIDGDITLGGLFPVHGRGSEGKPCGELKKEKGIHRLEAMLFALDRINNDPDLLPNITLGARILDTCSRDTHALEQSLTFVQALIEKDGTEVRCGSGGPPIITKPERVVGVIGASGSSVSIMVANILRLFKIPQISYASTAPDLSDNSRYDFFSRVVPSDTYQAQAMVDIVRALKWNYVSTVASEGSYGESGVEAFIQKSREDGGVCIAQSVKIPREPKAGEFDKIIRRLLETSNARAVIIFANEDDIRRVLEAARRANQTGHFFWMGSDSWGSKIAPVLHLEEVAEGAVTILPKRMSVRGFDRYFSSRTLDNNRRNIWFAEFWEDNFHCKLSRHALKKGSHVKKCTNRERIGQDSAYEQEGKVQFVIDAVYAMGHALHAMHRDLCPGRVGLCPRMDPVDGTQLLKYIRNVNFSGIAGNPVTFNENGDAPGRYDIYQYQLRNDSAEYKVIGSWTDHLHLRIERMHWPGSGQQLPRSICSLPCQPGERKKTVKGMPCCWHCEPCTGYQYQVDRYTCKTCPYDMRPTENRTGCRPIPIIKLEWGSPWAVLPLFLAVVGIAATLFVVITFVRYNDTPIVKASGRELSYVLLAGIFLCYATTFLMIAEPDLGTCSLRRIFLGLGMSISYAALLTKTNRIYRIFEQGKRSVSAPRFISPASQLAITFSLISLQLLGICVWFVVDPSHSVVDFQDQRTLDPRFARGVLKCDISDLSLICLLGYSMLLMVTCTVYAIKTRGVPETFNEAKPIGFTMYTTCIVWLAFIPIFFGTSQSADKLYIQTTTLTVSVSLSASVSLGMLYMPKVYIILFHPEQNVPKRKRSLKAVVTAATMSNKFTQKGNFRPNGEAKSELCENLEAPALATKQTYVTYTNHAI
T2 sequence (P31423 33-912): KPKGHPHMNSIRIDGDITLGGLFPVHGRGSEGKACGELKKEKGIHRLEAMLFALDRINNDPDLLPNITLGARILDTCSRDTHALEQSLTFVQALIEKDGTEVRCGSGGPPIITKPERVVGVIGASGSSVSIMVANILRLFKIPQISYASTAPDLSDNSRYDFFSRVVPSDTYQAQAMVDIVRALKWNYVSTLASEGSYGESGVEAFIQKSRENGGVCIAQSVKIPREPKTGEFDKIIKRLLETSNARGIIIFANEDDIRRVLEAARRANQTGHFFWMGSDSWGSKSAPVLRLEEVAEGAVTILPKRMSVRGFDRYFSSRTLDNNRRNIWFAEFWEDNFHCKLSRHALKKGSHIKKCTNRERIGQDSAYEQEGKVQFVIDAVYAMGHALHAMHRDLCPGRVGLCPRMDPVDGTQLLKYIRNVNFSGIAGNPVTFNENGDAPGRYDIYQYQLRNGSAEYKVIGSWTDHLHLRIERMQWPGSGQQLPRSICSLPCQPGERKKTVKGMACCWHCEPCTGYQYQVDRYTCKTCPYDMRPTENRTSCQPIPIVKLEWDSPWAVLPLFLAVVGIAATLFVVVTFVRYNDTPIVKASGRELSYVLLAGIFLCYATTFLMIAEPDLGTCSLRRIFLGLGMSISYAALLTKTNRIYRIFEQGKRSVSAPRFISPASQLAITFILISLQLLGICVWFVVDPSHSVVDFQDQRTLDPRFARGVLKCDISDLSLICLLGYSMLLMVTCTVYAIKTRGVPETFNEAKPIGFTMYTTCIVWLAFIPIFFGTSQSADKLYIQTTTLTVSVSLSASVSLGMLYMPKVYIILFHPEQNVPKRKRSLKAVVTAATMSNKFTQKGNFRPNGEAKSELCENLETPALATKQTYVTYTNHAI

For the compound `CC1(C)CC(=O)N(c2ccc(NC(=O)c3ccccn3)cc2Cl)C1=O` [Example 5, N-(3-chloro-4-(3,3-dimethyl-2,5-dioxopyrrolidin-1-yl)phenyl)picolinamide], at human mGluR4, the Emax was found to be 155% and the EC50 was found to be 1.81 µM.

Take `CC1CCC2C(=O)N(c3ccc(NC(=O)c4ccccn4)cc3Cl)C(=O)C2C1` (centres unmarked) [Example 10, N-(3-chloro-4-(5-methyl-1,3-dioxo-1H-isoindol-2(3H,3 aH,4H,5H,6H,7H,7aH)-yl)phenyl)picolinamide]: at human mGluR4, the Emax amounted to 215% and the EC50 was determined as 0.574 µM.

Regarding `O=C(Nc1ccc(N2C(=O)[C@H]3CCCC[C@H]3C2=O)c(Cl)c1)c1ccccn1` [Example 9, N-(3-chloro-4-((3aR,7aS)-1,3-dioxo-1H-isoindol-2(3H,3aH,4H,5H,6H,7H,7aH)-yl)phenyl)picolinamide], the Emax on human mGluR4 was found to be 116%.

`O=C(Nc1ccc(N2C(=O)[C@H](c3ccccc3)[C@H](c3ccccc3)C2=O)c(Cl)c1)c1ccccn1` [Example 11, N-(3-chloro-4-((3R,4S)-2,5-dioxo-3,4-diphenylpyrrolidin-1-yl)phenyl)picolinamide]: on human mGluR4, the Emax turned out to be 64% and the EC50 stood at 1.14 µM. As for `O=C(Nc1ccc(N2C(=O)CC3(CCCCC3)CC2=O)c(Cl)c1)c1ccccn1` [Example 14, N-(3-chloro-4-(2,4-dioxo-3-azaspiro[5.5]undecan-3-yl)phenyl)picolinamide], on human mGluR4, the Emax was found to be 193% and the EC50 turned out to be 0.163 µM. With `O=C(Nc1ccc(N2C(=O)CC(Cc3ccccc3Cl)(c3ccccc3)C2=O)c(Cl)c1)c1ccccn1` (centres unmarked) [Example 4, N-(3-chloro-4-(3-(2-chlorobenzyl)-2,5-dioxo-3-phenylpyrrolidin-1-yl)phenyl)picolinamide], on human mGluR4, the Emax came out at 88% and the EC50 amounted to 0.329 µM.

Turning to `O=C(Nc1ccc(N2C(=O)CCC2=O)c(Cl)c1)c1cscn1` [Example 21, N-(3-chloro-4-(2,5-dioxopyrrolidin-1-yl)phenyl)thiazole-4-carboxamide], on human mGluR4, the Emax came to 62% and the EC50 turned out to be 8.66 µM. As to `O=C(Nc1ccc(N2C(=O)[C@H]3CC[C@H](c4ccccc4)C[C@H]3C2=O)c(Cl)c1)c1ccccn1` [Example 7], on human mGluR4, the Emax amounted to 209% and the EC50 came out at 1.95 µM. Take `O=C(Nc1ccc(N2C(=O)C3=C(C2=O)c2ccccc2CC3)c(Cl)c1)c1ccccn1` [Example 12, N-(3-chloro-4-(1,3-dioxo-4,5-dihydro-1H-benzo[e]isoindol-2(3H)-yl)phenyl)picolinamide]: on human mGluR4, the Emax is 276% and the EC50 came out at 0.254 µM.

In the case of `O=C(Nc1ccc(N2C(=O)CCC2=O)c(Cl)c1)c1ccccn1` [Example 16, N-(3-chloro-4-(2,5-dioxopyrrolidin-1-yl)phenyl)picolinamide], on human mGluR4, the Emax came out at 119% and the EC50 was determined as 5.94 µM. On to `O=C(Nc1ccc(N2C(=O)CC(c3ccccc3)C2=O)c(Cl)c1)c1ccccn1` (centres unmarked) [Example 3, N-(3-chloro-4-(2,5-dioxo-3-phenylpyrrolidin-1-yl)phenyl)picolinamide], for which the Emax at human mGluR4 amounted to 219%. The EC50 at rat mGluR4 worked out at 0.69 µM. Moreover, the rGluMax on rat mGluR4 (rat mGluR4/GIRK) is listed as 128.7.

For the compound `O=C(Nc1ccc(N2C(=O)Cc3ccccc3C2=O)c(Cl)c1)c1ccccn1` [Example 13, N-(3-chloro-4-(1,3-dioxo-3,4-dihydroisoquinolin-2(1H)-yl)phenyl)picolinamide], at human mGluR4, the Emax is 256% and the EC50 was found to be 0.118 µM.

Turning to `O=C(Nc1ccc(N2C(=O)C3[C@H]4C=C[C@H](C4)[C@H]3C2=O)c(Cl)c1)c1ccccn1` (some centres unmarked) [Example 2], the Emax at human mGluR4 stood at 211%. For the same compound, the rGluMax at rat mGluR4 (rat mGluR4/GIRK) is given as 110.2. On to `O=C(Nc1ccc(N2C(=O)CC3(CCCCC3)C2=O)c(Cl)c1)c1ccccn1` [Example 15, N-(3-chloro-4-(1,3-dioxo-2-azaspiro[4.5]decan-2-yl)phenyl)picolinamide], for which the Emax on human mGluR4 was found to be 139%. Further, on rat mGluR4 (rat mGluR4/GIRK), the rGluMax was determined as 86.1. Consider `O=C(Nc1ccc(N2C(=O)[C@@H]3CCCC[C@H]3C2=O)c(Cl)c1)c1ccccn1` [Example 8, N-(3-chloro-4-((3aR,7aR)-1,3-dioxo-1H-isoindol-2(3H,3aH,4H,5H,6H,7H,7aH)-yl)phenyl)picolinamide], for which the Emax on human mGluR4 was found to be 189%. For the same compound, on rat mGluR4 (EC50 for potentiation, rat mGluR4/GIRK, with EC20 concentration of agonist, read-out: rEC50), the EC50 is 0.68 µM. Further, the rGluMax at rat mGluR4 (rat mGluR4/GIRK) came to 123.3.

For `O=C(Nc1ccc(N2C(=O)[C@@H]3[C@H](C2=O)[C@@H]2C=C[C@H]3CC2)c(Cl)c1)c1ccccn1` [Example 1], on human mGluR4, the Emax is 222%. On to `O=C(Nc1ccc(N2C(=O)CCC2=O)c(Cl)c1)c1cccc(Cl)n1` [Example 18, 6-Chloro-N-(3-chloro-4-(2,5-dioxopyrrolidin-1-yl)phenyl)picolinamide], for which, at human mGluR4, the Emax stood at 37% and the EC50 stood at 2.55 µM. For `CC1(c2ccccc2)CC(=O)N(c2ccc(NC(=O)c3ccccn3)cc2Cl)C1=O` (centres unmarked) [Example 6, N-(3-chloro-4-(3-methyl-2,5-dioxo-3-phenylpyrrolidin-1-yl)phenyl)picolinamide], the Emax on human mGluR4 is 245%. `O=C(Nc1ccc(N2C(=O)CCC2=O)c(Cl)c1)c1ccncn1` [Example 19, N-(3-chloro-4-(2,5-dioxopyrrolidin-1-yl)phenyl) pyrimidine-4-carboxamide]: at human mGluR4, the Emax was 46% and the EC50 amounted to 10 µM. `O=C(Nc1ccc(N2C(=O)CCC2=O)c(Cl)c1)c1nccs1` [Example 20, N-(3-chloro-4-(2,5-dioxopyrrolidin-1-yl)phenyl)thiazole-2-carboxamide]: at human mGluR4, the Emax came out at 69% and the EC50 amounted to 7.73 µM.

Consider `O=C(Nc1ccc(N2C(=O)CCC2=O)c(Cl)c1)c1cccc(F)n1` [Example 17, N-(3-chloro-4-(2,5-dioxopyrrolidin-1-yl)phenyl)-6-fluoropicolinamide], for which, at human mGluR4, the Emax turned out to be 40% and the EC50 was found to be 3.13 µM.

(Values after patent publication US8759377B2, “Substituted dioxopiperidines and dioxopyrrolidines as MGLUR4 allosteric potentiators, compositions, and methods of treating neurological dysfunction” (Vanderbilt University, priority 2009, dated 2014).)
